Experimental data from paper PMC5317004 (Scientific Reports, 2017).

Assay: Time-dependent IVM partitioning into the CHO cell membrane (removal from aqueous phase, absorbance at 245 nm)
Format: physicochemical, Chinese hamster
Details: 4 μM IVM, 140,000 CHO cells in 1 ml
Experimental: Figure 7 Recovery of ACh-evoked currents in the absence or presence of IVM. […] (B) Representative currents for the same experiment as in A, but with IVM (0.5 μM) added after peak IP1. Currents in A and B were measured at −60 mV. […] Red bars correspond to ACh-elicited currents where IVM was added as in panel B (N = 5). Error bars correspond to SEM. Asterisks correspond to unpaired, two-tailed Student’s t-tests with 0.001 < *P < 0.05, 0.0001 < **P < 0.001 and ***P < 0.0001. (D) Fractional removal of IVM from the aqueous phase of a 1-ml solutions containing 140,000 CHO cells and 4 μM IVM. Removal of IVM was determined following the indicated incubation times by measuring the absorbance of supernatants at 245 nm wavelength (e.g., Supplementary Fig. S3; Supplementary Materials and Methods). Note that, no IVM removal is indicated at the top of the y-axis. […]
To assess the IVM partitioning into the CHO cell plasma membrane during a short time period, we followed the procedure of Silberberg et al.[58] with a few modifications accounting for our experimental conditions. To this end, we incubated 140,000 CHO cells (correspond to 3.2 μM plasma membrane lipids[121]) with 4 μM IVM for either 0, 15 or 300 seconds, pelleted the cells by a brief centrifugation (30 seconds), and analyzed the extent of IVM removal from the aqueous solution (elaborated in the Supplementary Materials and Methods). […]

CC[C@H](C)[C@H]1O[C@]2(CC[C@@H]1C)C[C@@H]1C[C@@H](C/C=C(\C)[C@@H](O[C@H]3C[C@H](OC)[C@@H](O[C@H]4C[C@H](OC)[C@@H](O)[C@H](C)O4)[C@H](C)O3)[C@@H](C)/C=C/C=C3\CO[C@@H]4[C@H](O)C(C)=C[C@@H](C(=O)O1)[C@]34O)O2 [IVM, Ivermectin]
IVM removed from the aqueous solution by the CHO cells (15 seconds of incubation): no statistically significant amount | IVM removed from the aqueous solution by the CHO cells (5 minutes of incubation): ~24%
